In paper PMC10974290, “Biocatalytic Synthesis of Coumarin S-Glycosides: Towards Non-Cytotoxic Probes for Biomedical Imaging and Sensing” (Molecules, 2024):

How the values were obtained:
[1] = Fluorescence excitation/emission spectroscopy and relative quantum yield; assay type: physicochemical; settings: 7-MC in presence of 10 mM DTT; for Fluorescence λmax ex: emission at 420 nm; for Fluorescence λmax em: excitation at 280 nm; for Relative quantum yield Φ: relative to 4-MUB in DMF
Protocol: The values determined were close to those observed for the 4-MUB fluorophore.
Both absorbance and fluorescence spectra were measured on a Tecan […] M PLEX 200 Pro plate reader equipped with monochromator allowing a scan from 230 to 1000 nm. […] The solutions were then transferred to a Corning (Corning, NY, USA) UV-transparent 96-well plate. Absorbance spectra were recorded from 230 to 800 nm. Emission fluorescence spectra were recorded from 320 to 800 nm, under excitation at 280 nm. Excitation fluorescence spectra were recorded from 230 to 380 nm for an emission at 420 nm. All spectra were recorded with a wavelength step size of 2 nm. Data processing was performed with Excel software 2016. Fluorescence spectra are presented as normalized spectra ranging from 0 to 1. The relative quantum yields were calculated according to Equation (1):(1) ΦT=(AR/AT)×(FT/FR)×(nT/nR)×ΦR where Φ is the fluorescence quantum yield, A is the absorbance at the excitation wavelength, F is the area under the corrected emission curve, and n is the refractive index of the solvent for the test compound (T) and the reference (R). The 4-MUB value in DMF was used as the reference. The LOD (resp. LOQ) values were determined as the minimal concentration of product S-3 required to yield a fluorescence that was twice greater than (respectively, 5-times that of) the fluorescence noise on a sample containing PBS, using an excitation wavelength of 280 nm and an emission wavelength of 386 nm (Figure S44).

[2] = UV-visible absorbance spectroscopy; assay type: physicochemical; settings: 0.1 mM; for emax (molar absorption coefficient): 7-MC + DTT 10 mM; for Absorbance ε (molar absorption coefficient) / Absorbance λmax abs: 7-MC in presence of 10 mM DTT
Protocol: Subsequently, the analysis was carried out under two distinct conditions: firstly, in DMF, at a final concentration of 0.1 mM; and secondly, in a mixture PBS:DMF (99:1%), at the same final concentration of 0.1 mM. These two experimental setups provided valuable insights into the spectral characteristics of the compounds in both a pure organic solvent and a solvent system closely resembling physiological conditions. The maxima absorption wavelengths are compiled in Table 3. These bands were attributed to transitions within the benzene and pyrone moieties, considered together as a single chromophore. […] Similarly, 7-MC and S-1 to S-6 compounds also absorb in this UV range (λmax = 328–330 nm). […] In the organic solvent, these values are found to be higher compared to those calculated for 4-MUB and 7-MC. Conversely, in PBS, the extinction coefficients for S-glycosides are lower compared to the parent thiol 7-MC. This highlights the profound impact of glycosylation on absorption properties, as well as the importance of solvent choice.
Both absorbance and fluorescence spectra were measured on a Tecan […] M PLEX 200 Pro plate reader equipped with monochromator allowing a scan from 230 to 1000 nm. All synthesized molecules were initially dissolved in 10 mM DMF and subsequently diluted in freshly prepared PBS (pH = 7.4) to achieve a final concentration of 0.1 mM. The solutions were then transferred to a Corning (Corning, NY, USA) UV-transparent 96-well plate. Absorbance spectra were recorded from 230 to 800 nm. Emission fluorescence spectra were recorded from 320 to 800 nm, under excitation at 280 nm. Excitation fluorescence spectra were recorded from 230 to 380 nm for an emission at 420 nm. All spectra were recorded with a wavelength step size of 2 nm. Data processing was performed with Excel software 2016. Fluorescence spectra are presented as normalized spectra ranging from 0 to 1. The relative quantum yields were calculated according to Equation (1):(1) ΦT=(AR/AT)×(FT/FR)×[…]×ΦR where Φ is the fluorescence quantum yield, A is the absorbance at the excitation wavelength, F is the area under the corrected emission curve, and n is the refractive index of the solvent for the test compound (T) and the reference (R). The 4-MUB value in DMF was used as the reference. The LOD (resp. LOQ) values were determined as the minimal concentration of product S-3 required to yield a fluorescence that was twice greater than (respectively, 5-times that of) the fluorescence noise on a sample containing PBS, using an excitation wavelength of 280 nm and an emission wavelength of 386 nm (Figure S44).

| SMILES | Fluorescence λmax ex ([1]; DMF, 0.1 mM) [nm] | Fluorescence λmax em ([1]; DMF, 0.1 mM) [nm] | Relative quantum yield Φ ([1]; DMF) | Fluorescence λmax ex ([1]; PBS pH 7.4, 0.1 mM) [nm] | Fluorescence λmax em ([1]; PBS pH 7.4, 0.1 mM) [nm] | Relative quantum yield Φ ([1]; PBS) | emax (molar absorption coefficient) ([2]; DMF) | Absorbance ε (molar absorption coefficient) ([2]; DMF) | Absorbance λmax abs ([2]; DMF) [nm] | Absorbance ε (molar absorption coefficient) ([2]; PBS (PBS:DMF 99:1, pH 7.4)) | Absorbance λmax abs ([2]; PBS (PBS:DMF 99:1, pH 7.4)) [nm] | emax (molar absorption coefficient) ([2]; PBS 1x (pH = 7.4)) |
| --- | --- | --- | --- | --- | --- | --- | --- | --- | --- | --- | --- | --- |
| Cc1cc(=O)oc2cc(S[C@@H]3O[C@H](C)[C@H](O)[C@H](O)[C@H]3O)ccc12 [Compound S-5, 4-Methylumbellifer-7-yl 1-thio-β-D-fucopyranoside] | 334 | 386 | 0.183 | 326 | 402 | 0.228 | 22294,93104 cm-1 M-1 | 22.3 10^3 M^−1 cm^−1 | 330 | 10.4 10^3 M^−1 cm^−1 | 326 |  |
| Cc1cc(=O)oc2cc(S[C@@H]3O[C@H](CO)[C@@H](O)[C@H](O)[C@H]3O)ccc12 [Compound S-3, 4-Methylumbellifer-7-yl 1-thio-β-D-glucopyranoside] | 332 | 386 | 0.198 | 332 | 402 | 0.242 | 18634,68658 cm-1 M-1 | 18.6 10^3 M^−1 cm^−1 | 330 | 20.8 10^3 M^−1 cm^−1 | 326 | 20778,59706 cm-1 M-1 |
| Cc1cc(=O)oc2cc(S)ccc12 [Compound 7-MC, 7-mercapto-4-methylcoumarin, reference compound] | 334 | 392 | 0.009 | 321 | 448 | 0.020 | 10409,59 cm-1 M-1 | 10.4 10^3 M^−1 cm^−1 | 328 | 28.9 10^3 M^−1 cm^−1 | 368 | 28929,88854 cm-1 M-1 |
| Cc1cc(=O)oc2cc(S[C@@H]3O[C@H](C(=O)O)[C@@H](O)[C@H](O)[C@H]3O)ccc12 [Compound S-1, 4-Methylumbellifer-7-yl 1-thio-β-D-glucopyranosiduronic acid] | 332 | 390 | 0.182 | 332 | 402 | 0.235 | 26660,51579 cm-1 M-1 | 26.7 10^3 M^−1 cm^−1 | 330 | 23.3 10^3 M^−1 cm^−1 | 326 | 23328,41338 cm-1 M-1 |
| Cc1cc(=O)oc2cc(S[C@@H]3OC[C@@H](O)[C@H](O)[C@H]3O)ccc12 [Compound S-2, 4-Methylumbellifer-7-yl 1-thio-β-D-xylopyranoside] | 332 | 386 | 0.186 | 326 | 402 | 0.181 |  | 19.5 10^3 M^−1 cm^−1 | 330 | 26.0 10^3 M^−1 cm^−1 | 324 | 26044,28033 cm-1 M-1 |
| Cc1cc(=O)oc2cc(S[C@H]3O[C@H](CO)[C@H](O)[C@H](O)[C@H]3O)ccc12 [Compound S-6, 4-Methylumbellifer-7-yl 1-thio-α-D-galactopyranoside] | 334 | 388 | 0.223 | 332 | 416 | 0.185 | 22265,68277 cm-1 M-1 | 22.3 10^3 M^−1 cm^−1 | 330 | 19.8 10^3 M^−1 cm^−1 | 326 | 19811,80752 cm-1 M-1 |
| Cc1cc(=O)oc2cc(S[C@@H]3O[C@H](CO)[C@H](O)[C@H](O)[C@H]3O)ccc12 [Compound S-4, 4-Methylumbellifer-7-yl 1-thio-β-D-galactopyranoside] | 334 | 388 | 0.223 | 332 | 402 | 0.271 | 22265,68277 cm-1 M-1 | 22.3 10^3 M^−1 cm^−1 | 330 | 18.4 10^3 M^−1 cm^−1 | 326 | 18357,93367 cm-1 M-1 |
